In patent publication US10828266B2, “Topical regional neuro-affective therapy with caryophyllene” (Afgin Pharma, LLC, priority 2016, dated 2020):

What was measured:
human patients [1] = assay: Topical Cari-Derm (3% caryophyllene) on the back of the neck of human patients, case series of Table 1; assay type: in vivo
Procedure: (§1) The following patients were treated with a topical caryophyllene formulation (referred to in Table 1 as “Cari-Derm”, which is a topical 3% caryophyllene formulation) administered on the back of the neck on human patients, as more specifically described below in Table 1. The 3% Cari-Derm formulation contained approximately 30 mg of caryophyllene in a unit dose (1 gram).

human patients [2] = assay: Response to earlier or current medication as given in the patient history of Table 1; assay type: in vivo; settings: patient 11, autism and seizures with poor vision and focus
Procedure: as §1

[3] = target: cannabinoid receptor type-1 (CB1) (Homo sapiens, UniProt P21554); settings: centrally expressed receptor; background statement; cited from earlier work
cannabinoid receptor type-1 (CB1), sequence (P21554 whole entry): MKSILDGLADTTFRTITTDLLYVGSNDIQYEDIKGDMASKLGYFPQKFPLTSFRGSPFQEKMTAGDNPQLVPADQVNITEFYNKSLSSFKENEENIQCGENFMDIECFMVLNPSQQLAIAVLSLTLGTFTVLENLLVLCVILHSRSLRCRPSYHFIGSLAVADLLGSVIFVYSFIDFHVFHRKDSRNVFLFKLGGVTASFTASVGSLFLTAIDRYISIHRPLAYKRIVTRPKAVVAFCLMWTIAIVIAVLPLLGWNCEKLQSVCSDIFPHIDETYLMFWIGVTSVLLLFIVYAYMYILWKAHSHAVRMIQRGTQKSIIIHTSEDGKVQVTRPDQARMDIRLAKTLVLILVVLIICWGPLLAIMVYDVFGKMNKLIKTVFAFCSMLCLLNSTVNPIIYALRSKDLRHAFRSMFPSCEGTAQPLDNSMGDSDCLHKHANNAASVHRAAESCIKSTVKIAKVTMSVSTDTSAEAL

CB2 receptors = CB2 receptors (Homo sapiens, UniProt P34972); settings: background statement; cited from earlier work
CB2 receptors, sequence (P34972 whole entry): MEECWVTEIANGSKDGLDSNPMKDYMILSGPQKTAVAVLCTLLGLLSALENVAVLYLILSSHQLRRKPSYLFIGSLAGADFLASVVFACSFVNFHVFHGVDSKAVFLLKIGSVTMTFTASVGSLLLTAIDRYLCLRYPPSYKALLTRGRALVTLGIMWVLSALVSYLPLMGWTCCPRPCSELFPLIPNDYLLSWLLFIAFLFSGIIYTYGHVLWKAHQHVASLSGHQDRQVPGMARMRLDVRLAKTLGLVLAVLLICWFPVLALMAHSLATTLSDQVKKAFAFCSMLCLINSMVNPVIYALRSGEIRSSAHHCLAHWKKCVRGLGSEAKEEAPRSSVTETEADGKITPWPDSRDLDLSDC

human patients [4] = assay: Inventor's observation of onset and duration of therapeutic effect after administration of caryophyllene at the back of the neck; assay type: in vivo
Procedure: The inventor has observed rapid therapeutic onset of action, generally, less than 10 to 15 minutes administration of caryophyllene at the back of the neck, with maximal benefit noted well within 30 minutes. In certain embodiments, a prolonged therapeutic effect has been noted, e.g., about 4 to about 12 hours or more, depending on condition and severity of the condition being treated.

For C=C(C)[C@@H]1CCC(C)=C[C@H]1c1c(O)cc(CCCCC)cc1O [CBD, cannabidiol], the “patient's comparison of CBD with Cari-Derm for headache” value (human patients [1]; patient 35, chronic headaches and ADHD, uses topical CBD cream) was “CBD worked better”.
With COC(=O)C(c1ccccc1)C1CCCCN1 (stereo not shown) [Ritalin, methylphenidate] the “agitation on earlier medication” value (human patients [2]) was “benefit; increased agitation”.
In the case of CN1CCc2cccc3c2[C@H]1Cc1ccc(O)c(O)c1-3 [Apomorphine, apomorphine], the “neck range of motion and pain on adding topical apomorphine” value (human patients [1]; patient 14, torticollis with neck pain, apomorphine added after Cari-Derm) was “improved further”, the “tremors, focus, talkativeness with added Apomorphine” value (human patients [1]; patient 20, Parkinson's disease, Apomorphine 5 mg after Cari-Derm) was “Cari-Derm; further improved” and the “focus, spontaneity, gait after additional Apomorphine” value (human patients [1]; patient 23, poor focus, impulsivity, gait problems from Parkinson's, additional 5 mg Apomorphine after Cari-Derm) was “further improvement noted”.
In the case of C=C1CC/C=C(\C)CC[C@@H]2[C@@H]1CC2(C)C (relative stereo) [caryophyllene, trans-(1R,9S)-8-Methylene-4,11,11-trimethylbicyclo[7.2.0]undec-4-ene], the “binding to cannabinoid receptor type-1 (CB1)” value [3] is listed as “does not bind”, the “action on CB2 receptors” value (CB2 receptors) is listed as “acts on CB2 receptors” and the maximal benefit noted (human patients [4]) is listed as no more than 30 min. For the same compound, the “therapeutic onset of action” value (human patients [4]; generally) was 10 to 15 min.
In the case of “amphetamine, dextroamphetamine mixed salts [Adderall]”, the “agitation on earlier medication” value (human patients [2]) was “benefit; increased agitation”.
